Data taken from ChEMBL document CHEMBL1681690, “Discovery of TAK-733, a potent and selective MEK allosteric site inhibitor for the treatment of cancer” (Bioorg Med Chem Lett, 2011).
Active and inactive are the calls of the source. The rule behind the calls is not given here.

How the values were obtained:
[1] = Mean residence time in monkey at 0.5 mg/kg, iv; assay type: ADME, organism-based, Macaca mulatta; parameters: dose 0.5 mg/kg, route intravenous; settings: rhesus monkey, in vivo
[2] = Clearance in rat at 1 mg/kg, iv and 4.2 mg/kg, po; assay type: ADME, organism-based; settings: in vivo
[3] = target: Protein kinase C alpha type (Homo sapiens) (UniProt P17252); test: Inhibition of PKCalpha up to 10 uM
A-375 = test: Cytotoxicity against human A375 cells after 72 hrs by MTS assay; settings: A-375, 72 h
[4] = target: RAC-gamma serine/threonine-protein kinase (Homo sapiens) (UniProt Q9Y243); test: Inhibition of AKT3 up to 10 uM
[5] = Mean residence time in mouse at […], po; assay type: ADME, organism-based; parameters: dose 7.8 mg/kg, route oral; settings: in vivo
[6] = target: Dual specificity mitogen-activated protein kinase kinase 1 (Homo sapiens, UniProt Q02750)
Description: Inhibition of MEK1 by IMAP assay

[7] = Mean residence time in dog at 2.3 mg/kg, po; assay type: ADME, organism-based, Canis lupus familiaris; parameters: dose 2.3 mg/kg, route oral; settings: in vivo
[8] = Oral bioavailability in mouse at […]; assay type: ADME, organism-based; settings: in vivo
[9] = target: Mitogen-activated protein kinase 14 (Homo sapiens) (UniProt Q16539); test: Inhibition of p38alpha up to 10 uM
[10] = Oral bioavailability in rat at 4.2 mg/kg; assay type: ADME, organism-based; settings: in vivo
[11] = Volume of distribution at steady state in monkey at 0.5 mg/kg, iv and 2 mg/kg, po; assay type: ADME, organism-based, Macaca mulatta; settings: rhesus monkey, in vivo, read-out: Vdss
COLO 205 = test: Cytotoxicity against human COLO205 cells after 72 hrs by MTS assay; settings: COLO 205, 72 h
[12] = target: Glycogen synthase kinase-3 beta (Homo sapiens) (UniProt P49841); test: Inhibition of GSK3-beta up to 10 uM
[13] = target: Tyrosine-protein kinase JAK3 (Homo sapiens) (UniProt P52333); test: Inhibition of JAK3 up to 10 uM
[14] = Mean residence time in dog at 0.6 mg/kg, iv; assay type: ADME, organism-based, Canis lupus familiaris; parameters: dose 0.6 mg/kg, route intravenous; settings: in vivo
[15] = Clearance in dog at 0.6 mg/kg, iv and 2.3 mg/kg, po; assay type: ADME, organism-based, Canis lupus familiaris; settings: in vivo
[16] = Mean residence time in rat at 1 mg/kg, iv; assay type: ADME, organism-based; parameters: dose 1 mg/kg, route intravenous; settings: in vivo
[17] = Clearance in monkey at 0.5 mg/kg, iv and 2 mg/kg, po; assay type: ADME, organism-based, Macaca mulatta; settings: rhesus monkey, in vivo
[18] = Plasma protein binding in human; assay type: ADME, cell-free; settings: read-out: PPB (converted)
[19] = target: Hepatocyte growth factor receptor (Homo sapiens) (UniProt P08581); test: Inhibition of c-Met up to 10 uM
[20] = Volume of distribution at steady state in rat at 1 mg/kg, iv and 4.2 mg/kg, po; assay type: ADME, organism-based; settings: in vivo, read-out: Vdss
[21] = Mean residence time in monkey at 2 mg/kg, po; assay type: ADME, organism-based, Macaca mulatta; parameters: dose 2 mg/kg, route oral; settings: rhesus monkey, in vivo
[22] = target: Epidermal growth factor receptor (Homo sapiens) (UniProt P00533); test: Inhibition of EGFR up to 10 uM
[23] = Mean residence time in mouse at 1.4 mg/kg, iv; assay type: ADME, organism-based; parameters: dose 1.4 mg/kg, route intravenous; settings: in vivo
[24] = target: [Pyruvate dehydrogenase (acetyl-transferring)] kinase isozyme 1, mitochondrial (Homo sapiens) (UniProt Q15118); test: Inhibition of PDK1 up to 10 uM
[25] = Oral bioavailability in dog at 2.3 mg/kg; assay type: ADME, organism-based, Canis lupus familiaris; settings: in vivo
[26] = target: Calcium/calmodulin-dependent protein kinase type 1D (Homo sapiens) (UniProt Q8IU85); test: Inhibition of CamK1delta up to 10 uM
[27] = Half life in rat liver microsomes; assay type: ADME, Microsome
[28] = target: Platelet-derived growth factor receptor beta (Homo sapiens) (UniProt P09619); test: Inhibition of PDGFRbeta up to 10 uM
[29] = target: Cyclin-dependent kinase 2/cyclin A (Homo sapiens) (UniProt P24941+P20248+P78396); test: Inhibition of CDK2/cyclin A up to 10 uM; assay type: protein-complex assay
[30] = target: Insulin receptor (Homo sapiens) (UniProt P06213); test: Inhibition of IR up to 10 uM
[31] = Volume of distribution at steady state in mouse at 1.4 mg/kg, iv and […], po; assay type: ADME, organism-based; settings: in vivo, read-out: Vdss
[32] = Plasma protein binding in mouse; assay type: ADME, cell-free; settings: read-out: PPB (converted)
[33] = Volume of distribution at steady state in dog at 0.6 mg/kg, iv and 2.3 mg/kg, po; assay type: ADME, organism-based, Canis lupus familiaris; settings: in vivo, read-out: Vdss
[34] = Oral bioavailability in monkey at 2 mg/kg; assay type: ADME, organism-based, Macaca mulatta; settings: rhesus monkey, in vivo
[35] = target: Proto-oncogene tyrosine-protein kinase Src (Homo sapiens) (UniProt P12931); test: Inhibition of c-SRC up to 10 uM
[36] = Clearance in mouse at 1.4 mg/kg, iv and […] mg/kg, po; assay type: ADME, organism-based; settings: in vivo
[37] = Inhibition of CYP450 up to 30 uM; assay type: ADME
[38] = Half life in human liver microsomes; assay type: ADME, Microsome
[39] = target: Serine/threonine-protein kinase PLK3 (Homo sapiens) (UniProt Q9H4B4); test: Inhibition of PLK3 up to 10 uM
[40] = target: Tyrosine-protein kinase ABL1 (Homo sapiens) (UniProt P00519); test: Inhibition of Abl1 up to 10 uM
[41] = target: Angiopoietin-1 receptor (Homo sapiens) (UniProt Q02763); test: Inhibition of Tie2 up to 10 uM
[42] = target: Tyrosine-protein kinase SYK (Homo sapiens) (UniProt P43405); test: Inhibition of Syk up to 10 uM
[43] = target: RAF proto-oncogene serine/threonine-protein kinase (Homo sapiens) (UniProt P04049); test: Inhibition of c-RAF up to 10 uM
[44] = Mean residence time in rat at 4.2 mg/kg, po; assay type: ADME, organism-based; parameters: dose 4.2 mg/kg, route oral; settings: in vivo

Sequence of Dual specificity mitogen-activated protein kinase kinase 1 (Q02750 whole entry): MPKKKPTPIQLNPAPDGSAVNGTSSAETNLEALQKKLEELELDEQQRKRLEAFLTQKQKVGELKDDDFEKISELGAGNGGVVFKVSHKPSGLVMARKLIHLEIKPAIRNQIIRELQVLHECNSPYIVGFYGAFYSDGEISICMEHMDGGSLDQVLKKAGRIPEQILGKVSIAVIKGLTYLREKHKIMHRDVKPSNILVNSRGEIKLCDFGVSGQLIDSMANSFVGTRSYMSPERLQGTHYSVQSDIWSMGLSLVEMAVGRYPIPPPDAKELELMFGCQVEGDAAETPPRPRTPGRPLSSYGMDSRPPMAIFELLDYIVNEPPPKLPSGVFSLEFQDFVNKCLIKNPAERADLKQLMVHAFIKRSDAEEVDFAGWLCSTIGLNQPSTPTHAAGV
Sequence of Tyrosine-protein kinase JAK3 (Homo sapiens) (P52333 whole entry): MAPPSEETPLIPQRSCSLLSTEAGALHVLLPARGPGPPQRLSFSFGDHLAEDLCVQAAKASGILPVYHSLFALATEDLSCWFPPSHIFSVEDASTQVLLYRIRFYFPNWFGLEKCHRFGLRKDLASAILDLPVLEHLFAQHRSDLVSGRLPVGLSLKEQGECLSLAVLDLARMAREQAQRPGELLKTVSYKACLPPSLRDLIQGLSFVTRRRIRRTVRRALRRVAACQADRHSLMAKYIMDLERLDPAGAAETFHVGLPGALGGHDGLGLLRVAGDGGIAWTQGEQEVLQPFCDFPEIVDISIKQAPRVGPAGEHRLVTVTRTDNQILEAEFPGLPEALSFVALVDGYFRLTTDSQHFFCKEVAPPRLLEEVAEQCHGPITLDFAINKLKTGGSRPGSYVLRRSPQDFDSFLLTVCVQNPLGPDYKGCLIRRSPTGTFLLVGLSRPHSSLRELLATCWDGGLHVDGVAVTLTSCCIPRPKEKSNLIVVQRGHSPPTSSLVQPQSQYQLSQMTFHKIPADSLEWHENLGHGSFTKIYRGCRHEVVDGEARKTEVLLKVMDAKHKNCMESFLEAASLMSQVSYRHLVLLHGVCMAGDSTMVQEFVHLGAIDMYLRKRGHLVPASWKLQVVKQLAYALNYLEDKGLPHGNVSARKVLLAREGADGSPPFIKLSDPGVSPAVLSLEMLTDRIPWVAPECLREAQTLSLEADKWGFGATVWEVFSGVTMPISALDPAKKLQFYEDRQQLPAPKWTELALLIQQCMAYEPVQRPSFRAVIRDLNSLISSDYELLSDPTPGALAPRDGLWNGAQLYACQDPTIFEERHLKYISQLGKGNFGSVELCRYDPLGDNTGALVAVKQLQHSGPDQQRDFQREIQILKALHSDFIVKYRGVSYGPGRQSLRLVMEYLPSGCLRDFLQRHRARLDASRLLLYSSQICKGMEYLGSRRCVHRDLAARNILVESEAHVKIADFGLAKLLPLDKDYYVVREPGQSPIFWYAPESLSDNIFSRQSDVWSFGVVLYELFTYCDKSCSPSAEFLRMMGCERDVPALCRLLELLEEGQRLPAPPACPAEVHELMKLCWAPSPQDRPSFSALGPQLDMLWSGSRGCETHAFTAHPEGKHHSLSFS
Sequence of RAF proto-oncogene serine/threonine-protein kinase (Homo sapiens) (P04049 whole entry): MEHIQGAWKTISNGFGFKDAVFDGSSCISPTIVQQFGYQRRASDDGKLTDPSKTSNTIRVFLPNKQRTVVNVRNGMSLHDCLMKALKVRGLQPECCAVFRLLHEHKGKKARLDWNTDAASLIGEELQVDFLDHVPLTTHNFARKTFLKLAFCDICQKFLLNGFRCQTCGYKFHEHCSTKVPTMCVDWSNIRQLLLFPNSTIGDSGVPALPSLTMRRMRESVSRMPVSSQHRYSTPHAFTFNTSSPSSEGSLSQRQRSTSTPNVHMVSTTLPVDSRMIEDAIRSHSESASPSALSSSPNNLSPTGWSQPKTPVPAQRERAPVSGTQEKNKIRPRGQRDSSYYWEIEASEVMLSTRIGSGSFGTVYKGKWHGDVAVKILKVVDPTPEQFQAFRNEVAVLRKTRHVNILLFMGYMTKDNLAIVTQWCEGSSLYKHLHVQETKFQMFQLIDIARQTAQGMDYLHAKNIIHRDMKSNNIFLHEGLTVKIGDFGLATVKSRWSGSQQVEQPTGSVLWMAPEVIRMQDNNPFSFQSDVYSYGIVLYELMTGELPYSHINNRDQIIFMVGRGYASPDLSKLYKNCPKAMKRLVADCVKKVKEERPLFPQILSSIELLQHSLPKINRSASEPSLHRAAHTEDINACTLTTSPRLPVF
Sequence of Serine/threonine-protein kinase PLK3 (Homo sapiens) (Q9H4B4 whole entry, looked up): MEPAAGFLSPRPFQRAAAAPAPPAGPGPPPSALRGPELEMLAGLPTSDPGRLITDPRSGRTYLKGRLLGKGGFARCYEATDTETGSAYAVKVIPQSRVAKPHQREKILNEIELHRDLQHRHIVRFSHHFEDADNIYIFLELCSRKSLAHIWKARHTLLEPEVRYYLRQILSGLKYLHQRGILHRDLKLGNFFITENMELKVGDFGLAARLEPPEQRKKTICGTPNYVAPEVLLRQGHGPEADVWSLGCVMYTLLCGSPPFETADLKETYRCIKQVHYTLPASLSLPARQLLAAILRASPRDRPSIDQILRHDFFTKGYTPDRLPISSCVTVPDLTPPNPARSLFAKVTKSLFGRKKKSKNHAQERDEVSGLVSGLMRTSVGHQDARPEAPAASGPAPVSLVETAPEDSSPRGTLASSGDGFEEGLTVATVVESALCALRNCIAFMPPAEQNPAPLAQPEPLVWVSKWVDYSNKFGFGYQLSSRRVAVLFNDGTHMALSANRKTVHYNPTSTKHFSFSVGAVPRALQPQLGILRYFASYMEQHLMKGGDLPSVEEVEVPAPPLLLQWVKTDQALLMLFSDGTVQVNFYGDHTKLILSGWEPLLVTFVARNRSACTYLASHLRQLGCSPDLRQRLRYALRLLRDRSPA
Sequence of Angiopoietin-1 receptor (Homo sapiens) (Q02763 whole entry): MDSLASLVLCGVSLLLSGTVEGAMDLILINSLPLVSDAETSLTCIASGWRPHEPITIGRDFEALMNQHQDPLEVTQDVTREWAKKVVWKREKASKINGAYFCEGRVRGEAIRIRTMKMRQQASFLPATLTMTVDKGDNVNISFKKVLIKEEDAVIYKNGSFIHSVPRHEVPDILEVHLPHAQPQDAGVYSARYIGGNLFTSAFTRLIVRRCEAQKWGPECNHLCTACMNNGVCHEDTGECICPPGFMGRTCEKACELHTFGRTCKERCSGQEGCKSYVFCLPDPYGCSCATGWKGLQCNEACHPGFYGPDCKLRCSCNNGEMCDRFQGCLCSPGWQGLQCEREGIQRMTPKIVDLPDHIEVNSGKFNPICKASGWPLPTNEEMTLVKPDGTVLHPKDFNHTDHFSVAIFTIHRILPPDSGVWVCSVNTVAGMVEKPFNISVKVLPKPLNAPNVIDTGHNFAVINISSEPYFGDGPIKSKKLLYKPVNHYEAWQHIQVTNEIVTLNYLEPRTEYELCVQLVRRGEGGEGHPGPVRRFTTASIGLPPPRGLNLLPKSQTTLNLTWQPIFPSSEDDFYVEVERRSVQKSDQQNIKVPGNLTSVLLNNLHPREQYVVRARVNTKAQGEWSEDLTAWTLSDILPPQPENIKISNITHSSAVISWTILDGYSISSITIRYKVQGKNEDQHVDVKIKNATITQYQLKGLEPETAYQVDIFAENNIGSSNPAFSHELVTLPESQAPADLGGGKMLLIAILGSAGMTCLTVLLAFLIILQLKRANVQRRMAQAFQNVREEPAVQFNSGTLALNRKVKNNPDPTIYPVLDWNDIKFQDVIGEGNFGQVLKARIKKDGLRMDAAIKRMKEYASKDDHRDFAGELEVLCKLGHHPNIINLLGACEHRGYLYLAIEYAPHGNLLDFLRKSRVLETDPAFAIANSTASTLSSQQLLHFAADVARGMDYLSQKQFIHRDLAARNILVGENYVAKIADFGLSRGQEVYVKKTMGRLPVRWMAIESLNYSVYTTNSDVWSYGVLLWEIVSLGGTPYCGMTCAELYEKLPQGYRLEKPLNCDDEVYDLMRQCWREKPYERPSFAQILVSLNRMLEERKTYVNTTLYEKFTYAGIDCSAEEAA
Sequence of Proto-oncogene tyrosine-protein kinase Src (Homo sapiens) (P12931 2-536 limits assumed): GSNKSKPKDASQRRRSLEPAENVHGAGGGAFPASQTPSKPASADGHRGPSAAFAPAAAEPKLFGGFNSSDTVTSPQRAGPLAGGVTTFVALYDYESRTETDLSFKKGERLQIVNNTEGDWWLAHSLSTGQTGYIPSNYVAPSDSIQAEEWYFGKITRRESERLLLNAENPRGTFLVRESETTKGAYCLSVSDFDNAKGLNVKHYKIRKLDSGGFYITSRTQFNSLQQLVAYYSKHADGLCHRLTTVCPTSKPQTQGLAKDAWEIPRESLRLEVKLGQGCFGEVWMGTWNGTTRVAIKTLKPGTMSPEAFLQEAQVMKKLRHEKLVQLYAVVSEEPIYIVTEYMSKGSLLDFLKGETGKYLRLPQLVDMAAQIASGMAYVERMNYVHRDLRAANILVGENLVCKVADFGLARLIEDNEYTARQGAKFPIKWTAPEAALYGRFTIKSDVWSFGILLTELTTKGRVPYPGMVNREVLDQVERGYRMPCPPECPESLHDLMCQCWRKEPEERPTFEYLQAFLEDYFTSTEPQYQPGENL
Sequence of Mitogen-activated protein kinase 14 (Homo sapiens) (Q16539 whole entry): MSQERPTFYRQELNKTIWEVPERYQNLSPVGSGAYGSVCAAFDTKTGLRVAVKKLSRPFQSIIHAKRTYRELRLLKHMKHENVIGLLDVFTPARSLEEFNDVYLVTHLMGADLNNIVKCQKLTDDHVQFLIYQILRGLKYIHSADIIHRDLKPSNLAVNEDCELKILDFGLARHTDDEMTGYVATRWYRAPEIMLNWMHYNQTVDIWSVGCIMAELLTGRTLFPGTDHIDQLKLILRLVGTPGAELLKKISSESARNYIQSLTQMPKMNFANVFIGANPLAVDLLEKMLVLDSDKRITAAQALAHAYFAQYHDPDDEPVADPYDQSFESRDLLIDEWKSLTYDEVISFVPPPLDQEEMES

Structure (SMILES): Cn1c(=O)c(F)c(Nc2ccc(I)cc2F)c2c(=O)n(C[C@@H](O)CO)cnc21 [TAK-733]
- MRT [1]: 5.8 h
- clearance [2]: 13.7 mL/min/kg
- inhibition [3]: inactive
- EC50 (A-375): 3.1 nM
- inhibition [4]: inactive
- MRT [5]: 4.6 h
- IC50 [6]: 3.2 nM
- MRT [7]: 12.9 h
- bioavailability [8]: 67%
- inhibition [9]: inactive
- bioavailability [10]: 71%
- Vd [11]: 3.75 L/kg
- EC50 (COLO 205): 2.1 nM
- inhibition [12]: inactive
- inhibition [13]: inactive
- MRT [14]: 8.9 h
- clearance [15]: 5.9 mL/min/kg
- MRT [16]: 2 h
- clearance [17]: 11.1 mL/min/kg
- fraction unbound [18]: 0.03
- inhibition [19]: inactive
- Vd [20]: 1.64 L/kg
- MRT [21]: 23.8 h
- inhibition [22]: inactive
- MRT [23]: 1.9 h
- inhibition [24]: inactive
- bioavailability [25]: 76%
- inhibition [26]: inactive
- half-life [27]: 2.25 h
- inhibition [28]: inactive
- inhibition [29]: inactive
- inhibition [30]: inactive
- Vd [31]: 1.96 L/kg
- fraction unbound [32]: 0.04
- Vd [33]: 3.07 L/kg
- bioavailability [34]: > 38%
- inhibition [35]: inactive
- clearance [36]: 17.2 mL/min/kg
- inhibition (INH) [37]: Not Active
- half-life [38]: 2.38 h
- inhibition [39]: inactive
- inhibition [40]: inactive
- inhibition [41]: inactive
- inhibition [42]: inactive
- inhibition [43]: inactive
- MRT [44]: 11.5 h

Structure (SMILES): Cn1c(=O)c(Cl)c(Nc2ccc(I)cc2F)c2c(=O)n(C[C@@H](O)CO)cnc21
- EC50 (A-375): 25 nM
- IC50 [6]: 5.9 nM
- EC50 (COLO 205): 10 nM
- half-life [27]: > 3.33 h
- half-life [38]: 0.367 h

Structure (SMILES): Cc1c(Nc2ccc(I)cc2F)c2c(=O)n(C[C@@H](O)CO)cnc2n(C)c1=O
- EC50 (A-375): 7.4 nM
- EC50 (COLO 205): 7.9 nM
- half-life [27]: 1.97 h
- half-life [38]: 1.95 h

Structure (SMILES): Cn1c(=O)cc(Nc2ccc(I)cc2F)c2c(=O)n(CCO)cnc21
- EC50 (A-375): 60 nM
- EC50 (COLO 205): 38 nM
- half-life [27]: 0.183 h
- half-life [38]: 0.617 h

Structure (SMILES): C#Cc1ccc(Nc2c(F)c(=O)n(C)c3ncn(C[C@@H](O)CO)c(=O)c23)c(F)c1
- EC50 (A-375): 11 nM
- IC50 [6]: 4.8 nM
- EC50 (COLO 205): 10 nM
- half-life [27]: 0.55 h
- half-life [38]: 0.817 h

Structure (SMILES): Cn1c(=O)c(F)c(Nc2ccc(Br)cc2F)c2c(=O)n(C[C@@H](O)CO)cnc21
- EC50 (A-375): 50 nM
- EC50 (COLO 205): 38 nM
- half-life [27]: 0.817 h
- half-life [38]: 3.13 h

Structure (SMILES): Cn1c(=O)cc(Nc2ccc(I)cc2F)c2c(=O)n(C[C@@H](O)CCO)cnc21
- EC50 (A-375): 479 nM
- EC50 (COLO 205): 142 nM
- half-life [27]: 0.667 h
- half-life [38]: > 3.33 h

Structure (SMILES): Cc1c(Nc2ccc(I)cc2F)c2c(=O)n(C[C@H](O)CO)cnc2n(C)c1=O
- EC50 (A-375): 8 nM
- EC50 (COLO 205): 13 nM
- half-life [27]: > 3.33 h
- half-life [38]: > 3.33 h

Structure (SMILES): Cn1c(=O)c(F)c(Nc2ccc(I)cc2F)c2c(=O)n(C[C@H](O)CO)cnc21
- EC50 (A-375): 3 nM
- IC50 [6]: 3.2 nM
- EC50 (COLO 205): 2.6 nM
- half-life [27]: 1.52 h
- half-life [38]: 3.05 h

Structure (SMILES): CN(C)CCn1cnc2c(c(Nc3ccc(I)cc3F)cc(=O)n2C)c1=O
- IC50 [6]: 740 nM
- half-life [27]: 0.133 h
- half-life [38]: 0.483 h

Structure (SMILES): Cn1c(=O)cc(Nc2ccc(I)cc2F)c2c(=O)n(CCCO)cnc21
- EC50 (A-375): 23 nM
- IC50 [6]: 4.9 nM
- EC50 (COLO 205): 16 nM
- half-life [27]: 0.333 h
- half-life [38]: > 3.33 h

Structure (SMILES): Cn1cnc2c(c(Nc3ccc(I)cc3F)cc(=O)n2C)c1=O
- EC50 (A-375): 86 nM
- EC50 (COLO 205): 49 nM
- half-life [27]: 0.217 h
- half-life [38]: > 3.33 h

Structure (SMILES): Cn1c(=O)c(F)c(Nc2ccc(I)cc2F)c2c(=O)n(C(CO)CO)cnc21
- EC50 (A-375): 8 nM
- IC50 [6]: 3.3 nM
- EC50 (COLO 205): 3.5 nM
- half-life [27]: 0.8 h
- half-life [38]: 0.517 h

Structure (SMILES): Cn1c(=O)cc(Nc2ccc(I)cc2F)c2c(=O)n(C[C@@H](O)CO)cnc21
- EC50 (A-375): 26 nM
- EC50 (COLO 205): 27 nM
- half-life [27]: 0.417 h
- half-life [38]: 0.8 h

Structure (SMILES): Cn1c(=O)cc(Nc2ccc(I)cc2F)c2c(=O)n(C[C@H](O)CO)cnc21
- EC50 (A-375): 40 nM
- EC50 (COLO 205): 38 nM
- half-life [27]: > 3.33 h
- half-life [38]: > 3.33 h

Structure (SMILES): Cn1c(=O)c(F)c(Nc2ccc(I)cc2F)c2c(=O)n(CCO)cnc21
- EC50 (A-375): 6.3 nM
- EC50 (COLO 205): 3.7 nM
- half-life [27]: 0.483 h
- half-life [38]: 0.85 h

Structure (SMILES): Cn1c(=O)c(F)c(Nc2ccc(I)cc2F)c2c(=O)n(OC[C@H](O)CO)cnc21
- EC50 (A-375): 3 nM
- IC50 [6]: 3.1 nM
- EC50 (COLO 205): 1 nM
- half-life [27]: 0.467 h
- half-life [38]: 0.583 h

Structure (SMILES): Cc1c(Nc2ccc(I)cc2F)c2c(=O)n(CCO)cnc2n(C)c1=O
- EC50 (A-375): 18 nM
- IC50 [6]: 4 nM
- EC50 (COLO 205): 9 nM
- half-life [27]: > 3.33 h
- half-life [38]: > 3.33 h
